According to article PMC6882492, “Synthesis and biological evaluation of novel thienopyrimidine derivatives as diacylglycerol acyltransferase 1 (DGAT-1) inhibitors” (Journal of Enzyme Inhibition and Medicinal Chemistry, 2019):

Tests used:
hDGAT1 = target: T1, hDGAT1 (Homo sapiens, UniProt O75907); assay: Enzymatic assay hDGAT1; format: biochemical
T1 sequence (O75907 1-488): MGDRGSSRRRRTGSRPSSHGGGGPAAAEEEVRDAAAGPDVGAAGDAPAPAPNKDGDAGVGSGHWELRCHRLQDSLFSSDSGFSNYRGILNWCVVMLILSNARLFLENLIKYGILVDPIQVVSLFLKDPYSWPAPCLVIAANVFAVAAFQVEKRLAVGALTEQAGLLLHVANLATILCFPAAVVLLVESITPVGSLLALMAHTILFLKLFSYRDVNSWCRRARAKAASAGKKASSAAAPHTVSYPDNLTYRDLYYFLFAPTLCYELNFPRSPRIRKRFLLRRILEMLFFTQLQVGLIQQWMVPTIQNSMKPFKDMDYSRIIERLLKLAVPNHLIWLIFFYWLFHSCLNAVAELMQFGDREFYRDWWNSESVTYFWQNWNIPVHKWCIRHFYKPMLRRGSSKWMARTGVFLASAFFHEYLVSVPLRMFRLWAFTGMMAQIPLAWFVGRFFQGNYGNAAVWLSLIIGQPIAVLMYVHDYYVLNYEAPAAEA
From the text: (§1) ACATs have sequence homology to DGAT-1 and play essential roles in cholesterol homeostasis. 17b was not explored in the enzymatic assays due to its poor pharmacokinetic profile.

hDGAT2 = target: T2, hDGAT2 (Homo sapiens, UniProt Q96PD7); assay: Enzymatic assay hDGAT2; format: biochemical
T2 sequence (Q96PD7 1-388): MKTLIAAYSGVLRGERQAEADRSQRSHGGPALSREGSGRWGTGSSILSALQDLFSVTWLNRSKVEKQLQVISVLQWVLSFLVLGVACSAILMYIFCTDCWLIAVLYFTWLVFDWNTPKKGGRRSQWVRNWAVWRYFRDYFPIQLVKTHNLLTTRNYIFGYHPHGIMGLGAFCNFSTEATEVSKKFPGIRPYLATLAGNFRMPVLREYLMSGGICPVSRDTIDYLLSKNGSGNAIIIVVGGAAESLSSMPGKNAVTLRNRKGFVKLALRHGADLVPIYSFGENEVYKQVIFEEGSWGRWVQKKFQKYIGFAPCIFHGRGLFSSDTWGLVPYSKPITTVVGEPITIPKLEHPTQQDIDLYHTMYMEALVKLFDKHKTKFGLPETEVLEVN
From the text: as §1

[1] = Pharmacokinetic profile in dog; format: in vivo
[2] = In vitro microsomal stability, human; format: in vitro ADME; conditions: human liver microsomes, 5 μM, 60 min
CYP3A4 = CYP3A4 (Homo sapiens, UniProt P08684); assay: CYP inhibition assay CYP3A4; format: in vitro ADME; conditions: fluorescence detection method; read-out: CYPs enzyme inhibition, IC50, CYP3A4
CYP1A2 = target: T3, CYP1A2 (Homo sapiens, UniProt P05177); assay: CYP inhibition assay CYP1A2; format: in vitro ADME; conditions: fluorescence detection method; read-out: CYPs enzyme inhibition, IC50, CYP1A2
T3 sequence (P05177 1-516): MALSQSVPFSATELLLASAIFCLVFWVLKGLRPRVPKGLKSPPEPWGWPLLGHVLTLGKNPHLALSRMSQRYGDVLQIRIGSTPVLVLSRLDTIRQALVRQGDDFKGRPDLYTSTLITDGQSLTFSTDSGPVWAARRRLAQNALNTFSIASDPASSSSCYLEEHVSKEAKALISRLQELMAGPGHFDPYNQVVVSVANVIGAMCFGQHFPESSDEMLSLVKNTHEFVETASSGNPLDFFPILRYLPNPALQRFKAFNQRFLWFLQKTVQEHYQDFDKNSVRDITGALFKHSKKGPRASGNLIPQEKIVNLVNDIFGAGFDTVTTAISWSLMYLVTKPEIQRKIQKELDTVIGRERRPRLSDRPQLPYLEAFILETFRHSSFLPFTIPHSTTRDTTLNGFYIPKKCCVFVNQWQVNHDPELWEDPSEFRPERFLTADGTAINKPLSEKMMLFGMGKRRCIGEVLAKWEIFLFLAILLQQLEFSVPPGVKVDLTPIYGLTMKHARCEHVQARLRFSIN

CYP2D6 = CYP2D6 (Homo sapiens, UniProt P10635); assay: CYP inhibition assay CYP2D6; format: in vitro ADME; conditions: fluorescence detection method; read-out: CYPs enzyme inhibition, IC50, CYP2D6
plasma TAG level = assay: Oral lipid tolerance test (OLTT), dog; format: in vivo, Beagle dogs; conditions: dogs, 17a 1 mg/kg po, n = 2
Protocol: Beagle dogs (9 months old, n = 2/group) were obtained from Woojung Bio Inc. (Republic of Korea) were fasted for 16 h and received heavy cream (2.7 mL/kg), glucose (1 g/kg), water (5.3 mL/kg), and acetaminophen (20 mg/kg p.o.) 1 h after compound administration. Blood samples were collected at –0.5, 0, 1, 2, and 4 h.
To determine in vivo efficacy, we evaluated the activity of 17a against serum TAG level induced by the oral administration of corn oil (oral lipid tolerance test, OLTT; Figures 3 and 4), since intestinal targeted DGAT-1 inhibition results in a reduced serum TAG level. 17a was orally administered to ICR mice at 3 mg/kg or to dogs at 1 mg/kg before administration of corn oil.
Figure 4. Effect of 17a in a canine oral lipid tolerance test (n = 2, *p < .05; ***p < .001). The dog was treated with 17a (po. 1 mg/kg) or 2 (po. 1 mg/kg) before oral administration of corn oil. Vehicle for 2: 0.5% methylcellulose/0.5% Tween80 in distilled water, vehicle for 17a: 0.5% Tween80 in distilled water.

[3] = Tissue distribution in mice; format: in vivo; conditions: ICR mice, 30 mg/kg oral, n = 3
Protocol: In addition, tissue distribution of 17a was investigated. 17a was orally administered to mice at 30 mg/kg, and 2 was administrated as a positive control (Figure 5). […] Significant activity of 17a in the OLTT appeared to result from high concentration in the small intestine, even though bioavailability of 17a was not great in mice.
Figure 5. Tissue distribution of 17a in mice. 17a and 2 were orally administered to ICR mice at 30 mg/kg (n = 3). (a) AUC values of 17a and 2 in indicated tissues. […] Data represent mean value. (b) Tissue-to-plasma (T/P) ratio of 17a and 2. S.I.: small intestine, L.I.: large intestine.

CYP2D6, sequence (P10635 whole entry): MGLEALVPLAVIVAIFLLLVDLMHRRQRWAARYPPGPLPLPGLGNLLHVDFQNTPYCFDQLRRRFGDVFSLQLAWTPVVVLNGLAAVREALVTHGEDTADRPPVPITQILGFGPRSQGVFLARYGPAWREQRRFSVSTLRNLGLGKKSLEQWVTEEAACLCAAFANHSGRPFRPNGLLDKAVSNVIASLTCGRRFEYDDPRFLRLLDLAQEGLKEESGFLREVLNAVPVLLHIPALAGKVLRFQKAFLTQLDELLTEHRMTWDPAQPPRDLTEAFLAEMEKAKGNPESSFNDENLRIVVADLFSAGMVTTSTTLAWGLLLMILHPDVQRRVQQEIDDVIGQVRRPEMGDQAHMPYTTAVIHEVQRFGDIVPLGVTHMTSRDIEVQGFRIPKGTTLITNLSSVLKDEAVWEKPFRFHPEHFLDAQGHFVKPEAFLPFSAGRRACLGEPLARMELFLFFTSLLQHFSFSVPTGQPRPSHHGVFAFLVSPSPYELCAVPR
CYP3A4, sequence (P08684 whole entry): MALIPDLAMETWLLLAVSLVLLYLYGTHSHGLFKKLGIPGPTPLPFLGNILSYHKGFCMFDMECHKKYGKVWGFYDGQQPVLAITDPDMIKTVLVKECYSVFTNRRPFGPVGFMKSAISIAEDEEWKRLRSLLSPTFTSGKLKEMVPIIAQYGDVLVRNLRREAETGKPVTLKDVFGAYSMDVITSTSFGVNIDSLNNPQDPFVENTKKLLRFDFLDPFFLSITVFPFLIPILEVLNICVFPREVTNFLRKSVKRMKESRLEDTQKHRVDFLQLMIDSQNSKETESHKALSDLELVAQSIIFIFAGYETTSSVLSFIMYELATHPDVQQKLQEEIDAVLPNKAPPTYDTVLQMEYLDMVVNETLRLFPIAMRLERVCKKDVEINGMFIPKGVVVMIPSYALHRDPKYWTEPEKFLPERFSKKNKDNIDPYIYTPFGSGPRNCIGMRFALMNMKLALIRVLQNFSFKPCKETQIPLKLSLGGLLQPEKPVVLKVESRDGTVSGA

O=C([O-])C[C@H]1CC[C@@H](c2csc3c(-c4ccc(NC(=O)Nc5cccc(Cl)c5)cc4)ncnc32)CC1.[Na+] [Compound 17a, Sodium cis-2–(4–(4-(4-(3–(3-chlorophenyl)ureido)phenyl)thieno[3,2-d]pyrimidin-7-yl)cyclohexyl)acetate]
IC50 (hDGAT1): 0.061 µM | IC50 (hDGAT2): > 10 µM | Cl ([1]; 1 mg/kg iv, 3 mg/kg po): 6.7 ± 1.7 mL/min/kg | half-life ([1]; in vivo, 3 mg/kg po): 3.6 ± 0.7 h | bioavailability ([1]; in vivo, 3 mg/kg po vs 1 mg/kg iv): 53% | AUC ([1]; in vivo, 3 mg/kg po, read-out: AUC 0 ∼ 24): 8240 ± 2300 ng·h/mL | Microsomal stability, remaining percent [2]: 94% | IC50 (CYP3A4): 16.2 µM | IC50 (CYP1A2): 10.6 µM | IC50 (CYP2D6): 8.7 µM | Reduction of TAG in OLTT (plasma TAG level): significant reduction of TAG | Tissue distribution (concentration levels in tissues) [3]: in the liver and small intestine were much higher than in other tissues
